From ChEMBL document CHEMBL1909046, “DrugMatrix in vitro pharmacology data”

What was measured:
[1] = DRUGMATRIX: GABAA, Flunitrazepam, Central radioligand binding (ligand: [3H] Flunitrazepam); assay type: cell membranes, Rattus norvegicus, Wistar, Brain, Membrane; details: Not Active = under 50% inhibition at 10 µM
[2] = DRUGMATRIX: Imidazoline I2, Central radioligand binding (ligand: [3H] Idazoxan); assay type: cell membranes, Rattus norvegicus, Wistar, Cerebral cortex, Membrane; details: Not Active = under 50% inhibition at 10 µM
[3] = biological target: Delta-type opioid receptor (Homo sapiens, UniProt P41143); assay type: cell membranes, HEK293, Membrane; details: hek293; further: in other assays of this panel Not Active means under 50% inhibition at 10 µM
Progesterone receptor = biological target: T1, Progesterone receptor (Bos taurus, UniProt Q690N0); experiment: DRUGMATRIX: Progesterone radioligand binding (ligand: [3H] R-5020); assay type: tissue-based, Uterus; details: Not Active = under 50% inhibition at 10 µM
T1 sequence (Q690N0 whole entry): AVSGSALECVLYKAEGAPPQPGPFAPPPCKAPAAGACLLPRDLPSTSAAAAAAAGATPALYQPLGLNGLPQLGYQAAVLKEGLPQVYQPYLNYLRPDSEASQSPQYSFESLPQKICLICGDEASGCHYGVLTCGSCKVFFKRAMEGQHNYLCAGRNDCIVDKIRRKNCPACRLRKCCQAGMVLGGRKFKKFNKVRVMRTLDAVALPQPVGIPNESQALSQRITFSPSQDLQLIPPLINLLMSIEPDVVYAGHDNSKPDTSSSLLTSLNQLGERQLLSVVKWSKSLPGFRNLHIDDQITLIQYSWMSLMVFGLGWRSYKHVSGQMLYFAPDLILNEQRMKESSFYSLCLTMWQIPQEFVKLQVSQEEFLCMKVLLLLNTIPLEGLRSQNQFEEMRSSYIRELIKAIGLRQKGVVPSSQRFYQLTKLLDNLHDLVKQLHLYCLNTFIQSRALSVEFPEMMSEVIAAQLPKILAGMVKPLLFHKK

[4] = biological target: Mitogen-activated protein kinase 1 (Homo sapiens, UniProt P28482); experiment: DRUGMATRIX: Protein Serine/Threonine Kinase, ERK2 enzyme inhibition (substrate: Myelin Basic Protein); parameters: species or system Escherichia coli; details: Not Active = under 50% inhibition at 10 µM
Cytochrome P450 2A6 = biological target: T2, Cytochrome P450 2A6 (Homo sapiens, UniProt P11509); details: bti-tn-5b1-4; further: in other assays of this panel Not Active means under 50% inhibition at 10 µM
T2 sequence (P11509 whole entry): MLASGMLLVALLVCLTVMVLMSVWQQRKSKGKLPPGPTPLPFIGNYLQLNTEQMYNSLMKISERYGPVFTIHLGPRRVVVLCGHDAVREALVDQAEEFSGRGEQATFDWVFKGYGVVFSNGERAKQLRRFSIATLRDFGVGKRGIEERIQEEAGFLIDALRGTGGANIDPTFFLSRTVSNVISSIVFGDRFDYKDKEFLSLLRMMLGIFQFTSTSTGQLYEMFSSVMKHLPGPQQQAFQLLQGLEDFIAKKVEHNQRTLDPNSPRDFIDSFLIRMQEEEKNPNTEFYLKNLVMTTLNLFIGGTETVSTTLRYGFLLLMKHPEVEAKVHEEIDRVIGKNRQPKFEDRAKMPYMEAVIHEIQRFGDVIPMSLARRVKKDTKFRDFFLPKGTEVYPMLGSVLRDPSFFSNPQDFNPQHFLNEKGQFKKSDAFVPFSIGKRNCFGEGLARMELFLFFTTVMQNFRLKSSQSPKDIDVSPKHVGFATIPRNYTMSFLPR

Mitogen-activated protein kinase 1, sequence (P28482 whole entry): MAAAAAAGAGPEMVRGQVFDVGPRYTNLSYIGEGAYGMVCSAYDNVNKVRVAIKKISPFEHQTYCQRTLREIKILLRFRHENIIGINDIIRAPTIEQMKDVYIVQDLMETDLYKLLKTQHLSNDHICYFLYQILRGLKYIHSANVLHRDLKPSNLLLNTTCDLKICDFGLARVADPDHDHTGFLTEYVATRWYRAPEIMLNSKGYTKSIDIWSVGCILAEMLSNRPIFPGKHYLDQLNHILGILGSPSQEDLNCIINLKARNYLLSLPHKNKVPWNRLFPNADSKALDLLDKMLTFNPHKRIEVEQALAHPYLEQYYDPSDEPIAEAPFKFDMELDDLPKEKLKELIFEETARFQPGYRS
Delta-type opioid receptor, sequence (P41143 whole entry): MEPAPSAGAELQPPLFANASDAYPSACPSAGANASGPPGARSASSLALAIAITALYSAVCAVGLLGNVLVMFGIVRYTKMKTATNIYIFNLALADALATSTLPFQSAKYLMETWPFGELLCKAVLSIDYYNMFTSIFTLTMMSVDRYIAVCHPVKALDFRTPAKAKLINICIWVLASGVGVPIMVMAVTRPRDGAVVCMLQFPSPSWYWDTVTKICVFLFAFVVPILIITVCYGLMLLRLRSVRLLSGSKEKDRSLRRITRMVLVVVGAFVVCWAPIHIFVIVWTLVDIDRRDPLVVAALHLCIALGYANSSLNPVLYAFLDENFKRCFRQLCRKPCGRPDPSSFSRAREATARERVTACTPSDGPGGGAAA

SMILES	IC50 [1]	Ki [1]	IC50 [2]	Ki [2]	IC50 [3]	IC50 (Progesterone receptor)	IC50 [4]	IC50 (Cytochrome P450 2A6)	Ki (Cytochrome P450 2A6)	IC50 (Progesterone receptor; read-out: IC50) [nM]	Ki (Progesterone receptor; read-out: Ki) [nM]	IC50 ([4]; read-out: IC50) [nM]	IC50 ([2]; read-out: IC50) [nM]	Ki ([2]; read-out: Ki) [nM]
Nn1nnc2ccccc21	Not Active	Not Active	Not Active	Not Active	Not Active	Not Active	Not Active	Not Active	Not Active					
CC[C@]1(O)CC[C@H]2[C@@H]3CCC4=CCCC[C@@H]4[C@H]3CC[C@@]21C	Not Active	Not Active	Not Active	Not Active	Not Active		Not Active	Not Active	Not Active	201	26			
N[C@@H](Cc1ccc(F)cc1)C(=O)O	Not Active	Not Active	Not Active	Not Active	Not Active	Not Active	Not Active							
CCOC(=O)[C@H](CCc1ccccc1)N[C@@H](C)C(=O)N1Cc2ccccc2C[C@H]1C(=O)O	Not Active	Not Active	Not Active	Not Active	Not Active	Not Active	Not Active	Not Active	Not Active					
O=C(c1ccccc1Cl)N1CCC(Cc2ccccc2)CC1	Not Active	Not Active	Not Active	Not Active	Not Active	Not Active	Not Active	Not Active	Not Active					
CCOC(=O)[C@H](CCc1ccccc1)N[C@@H](C)C(=O)N1CCC[C@H]1C(=O)O	Not Active	Not Active	Not Active	Not Active	Not Active		Not Active	Not Active	Not Active					
Clc1cc2c(cc1Cl)Oc1cc(Cl)c(Cl)cc1O2 [2,3,7,8-TETRACHLORODIBENZO-P-DIOXIN]	Not Active	Not Active	Not Active	Not Active	Not Active	Not Active	Not Active	Not Active	Not Active					
C=C1/C(=C\C=C2/CCC[C@]3(C)[C@@H]([C@H](C)CCCC(C)C)CC[C@@H]23)C[C@@H](O)C[C@@H]1O [ALFACALCIDOL]	Not Active	Not Active	Not Active	Not Active	Not Active	Not Active	Not Active	Not Active	Not Active					
CCCCCC[C@H]1C(=O)O[C@H](C)[C@H](NC(=O)c2cccc(NC=O)c2O)C(=O)O[C@@H](C)[C@@H]1OC(=O)CC(C)C [ANTIMYCIN A]	Not Active	Not Active	Not Active	Not Active	Not Active	Not Active		Not Active	Not Active			2120		
C[C@@H]1CC[C@H]2[C@@H](C)C(=O)O[C@@H]3O[C@@]4(C)CC[C@@H]1[C@]32OO4 [ARTEMISININ]	Not Active	Not Active	Not Active	Not Active	Not Active	Not Active	Not Active							
CO[C@H]1[C@@H](O)[C@H](N)[C@@H](O[C@H]2O[C@H]([C@H](C)N)CC[C@H]2N)[C@H](O)[C@@H]1N(C)C(=O)CN [ASTROMICIN]	Not Active	Not Active	Not Active	Not Active	Not Active	Not Active	Not Active	Not Active	Not Active					
[N-]=[N+]=CC(=O)OC[C@H](N)C(=O)O [AZASERINE]	Not Active	Not Active	Not Active	Not Active	Not Active	Not Active	Not Active	Not Active	Not Active					
CC[C@H]1OC(=O)[C@H](C)[C@@H](O[C@H]2C[C@@](C)(OC)[C@@H](O)[C@H](C)O2)[C@H](C)[C@@H](O[C@@H]2O[C@H](C)C[C@H](N(C)C)[C@H]2O)[C@](C)(O)C[C@@H](C)CN(C)[C@H](C)[C@@H](O)[C@]1(C)O [AZITHROMYCIN]	Not Active	Not Active	Not Active	Not Active	Not Active	Not Active	Not Active	Not Active	Not Active					
CC(C)(C)c1ccc(S(=O)(=O)/C=C/C#N)cc1 [BAY-11-7085]	Not Active	Not Active	Not Active	Not Active	Not Active	Not Active	Not Active	Not Active	Not Active					
CCc1oc2ccccc2c1C(=O)c1cc(Br)c(O)c(Br)c1 [BENZBROMARONE]	Not Active	Not Active	Not Active	Not Active	Not Active	Not Active		Not Active	Not Active			1950		
O=c1cc(-c2ccccc2)oc2ccc3ccccc3c12 [BETA-NAPHTHOFLAVONE]	Not Active	Not Active	Not Active	Not Active	Not Active	Not Active	Not Active	Not Active	Not Active					
CC(C)C[C@H]1C(=O)N2CCC[C@H]2[C@]2(O)O[C@](NC(=O)[C@@H]3C=C4c5cccc6[nH]c(Br)c(c56)C[C@H]4N(C)C3)(C(C)C)C(=O)N12 [BROMOCRIPTINE]	Not Active	Not Active			Not Active	Not Active	Not Active	Not Active	Not Active				53	35
CS(=O)(=O)OCCCCOS(C)(=O)=O [BUSULFAN]	Not Active	Not Active	Not Active	Not Active	Not Active	Not Active	Not Active	Not Active	Not Active					
O=C(/C=C/c1ccc(O)c(O)c1)OCCc1ccccc1 [CAFFEIC ACID PHENETHYL ESTER]	Not Active	Not Active	Not Active	Not Active	Not Active	Not Active		Not Active	Not Active			686		
COc1cc(CNC(=O)CCCC/C=C/C(C)C)ccc1O [CAPSAICIN]	Not Active	Not Active	Not Active	Not Active	Not Active	Not Active	Not Active	Not Active	Not Active					
CCC[C@@H]1C[C@@H](C(=O)N[C@@H]([C@H]2O[C@H](SC)[C@H](O)[C@@H](O)[C@H]2O)[C@H](C)Cl)N(C)C1 [CLINDAMYCIN]	Not Active	Not Active	Not Active	Not Active	Not Active	Not Active	Not Active							
Cc1c(N(C)CS(=O)(=O)[O-])c(=O)n(-c2ccccc2)n1C.[Na+] [DIPYRONE SODIUM]	Not Active	Not Active	Not Active	Not Active	Not Active	Not Active		Not Active	Not Active					
CC(C(=O)O)c1ccc(-c2ccccc2)c(F)c1 (stereo unspecified) [FLURBIPROFEN]	Not Active	Not Active	Not Active	Not Active	Not Active		Not Active	Not Active	Not Active					
Cc1cn[nH]c1 [FOMEPIZOLE]	Not Active	Not Active	Not Active	Not Active	Not Active	Not Active	Not Active							
Cc1cnc(C(=O)NCCc2ccc(S(=O)(=O)NC(=O)NC3CCCCC3)cc2)cn1 [GLIPIZIDE]	Not Active	Not Active	Not Active	Not Active	Not Active	Not Active								
COc1ccccc1OCC(O)CO (stereo unspecified) [GUAIFENESIN]	Not Active	Not Active	Not Active	Not Active	Not Active	Not Active	Not Active							
C/C=C\c1ccc(O)c(OC)c1 [ISOEUGENOL]	Not Active	Not Active	Not Active	Not Active	Not Active	Not Active	Not Active							
